Assay results as given in patent US20030017186A1, “Carboxylic acid fluorides as pesticides” (priority 1999, published 2003).

Columns and labels:
[1] = system: House longhorn beetle (Hylotrupes bajulus); assay: Fumigation test in glass vessel, house longhorn beetles; type: in vivo
[2] = system: Common furniture beetle (Anobium punctatum); assay: Fumigation test in glass vessel, common furniture beetles; type: in vivo; conditions: ANOBPU beetles; Example 5; ACF 50.6/48.2/51.4 g/m^3, SF 47.4/44.6/41 g/m^3 (1st/2nd/3rd fumigation); 23/23/22° C.
Text: b2) Common furniture beetle (Anobium punctatum)=[…]
(§1) The test organisms, separated by species, were placed into a glass vessel measuring 30 cm×30 cm×60 cm, which was sealed with a glass lid so as to be airtight. The adults and the larvae of the mealworm beetle (Tenebrio molitor) and the broad-horned flour beetle (Gnathocerus cornutus) were placed into small glass vessels approximately 5 cm in diameter, which were closed with a gauze lid and in which they could freely move about. The larvae of the rice weevil had burrowed into seeds of grain. The wood pest larvae were inserted into small blocks of wood measuring 5 cm×2.5 cm×2 cm. The openings were sealed with wads of cotton wool. Only one each of the larvae of the house longhorn beetle (Hylotrupes bajulus) was inserted into a piece of wood, while 6-8 larvae of the common furniture beetle (Anobium punctatum) were inserted into each piece of wood.
(§2) The respective gas was then introduced into the fumigation vessel through a gas line from a gas tank that contained the specified amount of gas. After a defined time period, the fumigation vessel was purged with compressed air. The discharged gas was purified by an attached gas scrubber.
(§3) The beetles were observed until they died. This point was recorded for each species. The larvae of the wood pests as well as the larvae of the rice weevil (Sitophilus oryzae) had to be picked out of the wood or the grain to check their condition. If any of the animals were still alive, the wooden test blocks remaining in the vessel were fumigated again and were reexamined after the corresponding time span had elapsed. The same number of animals in the untreated control was also checked at each point.
(§4) The vitality of the animals was checked at certain time intervals. The beetles could be observed through the fumigation vessel. This was also true for the larvae of the mealworm beetle and the broad-horned flour beetle. The wooden test blocks of the wood pest larvae were opened with hammer and chisel. Tweezers were used to pull the rice weevil larvae out of the grain seeds. The exact time intervals and the number of the evaluated pests were documented in the test results.

[3] = system: Mealworm beetle (Tenebrio molitor) larvae; assay: Fumigation test in glass vessel, mealworm beetle larvae; type: in vivo; conditions: TENEMO larvae
[4] = system: Rice weevil (Sitophilus oryzae); assay: Fumigation test in glass vessel, rice weevils; type: in vivo; conditions: SITTOR beetles
[5] = system: Rice weevil (Sitophilus oryzae) larvae; assay: Fumigation test in glass vessel, rice weevil larvae in grain seeds; type: in vivo; conditions: SITTOR larvae in grain seeds
Text: a2) Rice weevil (Sitophilus oryzae)=SITTOR
as §1, §2, §3, §4

[6] = system: Broad-horned flour beetle (Gnathocerus cornutus); assay: Fumigation test in glass vessel, broad-horned flour beetles; type: in vivo; conditions: GNATCO beetles
[7] = system: Broad-horned flour beetle (Gnathocerus cornutus) larvae; assay: Fumigation test in glass vessel, broad-horned flour beetle larvae; type: in vivo; conditions: GNATCO larvae
[8] = system: American drywood termites (Cryptotermes brevis); assay: Termite control fumigation test, Cryptotermes brevis; type: in vivo; conditions: Example 6
Text: (§5) c) American drywood termites (Cryptotermes brevis)=CRYPBR, and Incisitermes tabogae=INCITA
as §1, §2, §3, §4

Incisitermes tabogae = assay: Termite control fumigation test, Incisitermes tabogae; type: in vivo; conditions: Example 6
Text: as §5, §1, §2, §3, §4

termites = assay: Termite control fumigation test (overall statements); type: in vivo, Cryptotermes brevis, Incisitermes tabogae; conditions: Example 6
Text: as §5, §1, §2, §3
The vitality of the animals was checked at certain time intervals. The beetles could be observed through the fumigation vessel. This was also true for the larvae of the mealworm beetle and the broad-horned flour beetle. […] The exact time intervals and the number of the evaluated pests were documented in the test results.

[9] = HYLOBA beetles, Example 5, ACF 50.6/48.2/51.4 g/m^3, SF 47.4/44.6/41 g/m^3 (1st/2nd/3rd fumigation), 23/23/22° C.
[10] = HYLOBA beetles, Example 7, ACF 53.0/54.6/0 g/m^3, second gas (SF) 43.6/41.4/39.8 g/m^3 (1st/2nd/3rd fumigation), 20.0/20.2/19.8 C.
[11] = Example 4, gas 36.5 g/m^3, 19.3° C., 54% rel. air humidity
[12] = Example 5, ACF 50.6/48.2/51.4 g/m^3, SF 47.4/44.6/41 g/m^3 (1st/2nd/3rd fumigation), 23/23/22° C.
[13] = Example 7, ACF 53.0/54.6/0 g/m^3, second gas (SF) 43.6/41.4/39.8 g/m^3 (1st/2nd/3rd fumigation), 20.0/20.2/19.8 C.
[14] = CRYPBR termites, ACF 50.0/53.8 g/m^3, SF 47.8/44.8 g/m^3 (1st/2nd fumigation), 23.7/24° C.
[15] = INCITA termites, ACF 50.0/53.8 g/m^3, SF 47.8/44.8 g/m^3 (1st/2nd fumigation), 23.7/24° C.

CC(=O)F [ACF, acetyl fluoride]
Time after which the house longhorn beetles were dead ([1]; Example 4, 3 house longhorn beetles, gas 36.5 g/m^3, 19.3° C.): 15 min
Number alive, 30 min. after Start of Fumigation [1, 9]: 0
Number dead, 30 min. after Start of Fumigation [1, 9]: 4
Number alive, 30 min. after 1st Fumigation [1, 10]: 3
Number alive, 1 hr. after 1st Fumigation [1, 10]: 0
Number dead, 30 min. after 1st Fumigation [1, 10]: 3
Number dead, 1 hr. after 1st Fumigation [1, 10]: 6
Number alive, 30 min. after Start of Fumigation [2]: 0
Number dead, 30 min. after Start of Fumigation [2]: 6
Number alive, 1 hr. after Start of Fumigation [3, 11]: 5
Number alive, 2 hrs. after Start of Fumigation [3, 11]: 0
Number dead, 1 hr. after Start of Fumigation [3, 11]: 5
Number dead, 2 hrs. after Start of Fumigation [3, 11]: 10
Number alive, 30 min. after Start of Fumigation [3, 12]: 0
Number dead, 30 min. after Start of Fumigation [3, 12]: 10
Number alive, 30 min. after 1st Fumigation [3, 13]: 5
Number alive, 1 hr. after 1st Fumigation [3, 13]: 0
Number dead, 30 min. after 1st Fumigation [3, 13]: 5
Number dead, 1 hr. after 1st Fumigation [3, 13]: 10
Number alive, 1 hr. after Start of Fumigation [4, 11]: 0
Number dead, 1 hr. after Start of Fumigation [4, 11]: 25
Number alive, 30 min. after Start of Fumigation [4, 12]: 0
Number dead, 30 min. after Start of Fumigation [4, 12]: 15
Number alive, 30 min. after 1st Fumigation [4, 13]: 0
Number dead, 30 min. after 1st Fumigation [4, 13]: 15
Number alive, 24 hrs. after Start of Fumigation [5, 11]: 0
Number dead, 24 hrs. after Start of Fumigation [5, 11]: 25
Number alive, 1 hr. after Start of Fumigation [5, 12]: 0
Number dead, 1 hr. after Start of Fumigation [5, 12]: 15
Number alive, 1 hr. after Start of Fumigation [6, 11]: 13
Number alive, 2 hrs. after Start of Fumigation [6, 11]: 3
Number alive, 12 hrs. after Start of Fumigation [6, 11]: 0
Number dead, 1 hr. after Start of Fumigation [6, 11]: 12
Number dead, 2 hrs. after Start of Fumigation [6, 11]: 22
Number dead, 12 hrs. after Start of Fumigation [6, 11]: 25
Number alive, 30 min. after Start of Fumigation [6, 12]: 0
Number dead, 30 min. after Start of Fumigation [6, 12]: 15
Number alive, 30 min. after 1st Fumigation [6, 13]: 0
Number dead, 30 min. after 1st Fumigation [6, 13]: 15
Number alive, 1 hr. after Start of Fumigation [7, 11]: 0
Number dead, 1 hr. after Start of Fumigation [7, 11]: 25
Number alive, 30 min. after Start of Fumigation [7, 12]: 0
Number dead, 30 min. after Start of Fumigation [7, 12]: 15
Number alive, 30 min. after 1st Fumigation [7, 13]: 0
Number dead, 30 min. after 1st Fumigation [7, 13]: 15
Number alive, 30 min. after 1st Fumigation [8, 14]: 180
Number alive, 1 hr. after 1st Fumigation [8, 14]: 60
Number alive, 3 hrs. after 1st Fumigation [8, 14]: 0
Number dead, 30 min. after 1st Fumigation [8, 14]: 0
Number dead, 1 hr. after 1st Fumigation [8, 14]: 0
Number dead, 3 hrs. after 1st Fumigation [8, 14]: 120
Effectiveness against Cryptotermes [8]: particularly effective
Condition of Cryptotermes on reexamination after 24-hour observation period ([8]; animals fumigated 1 hour, then 24-hour observation): dead
Number of Incisitermes still alive on reexamination after 24-hour observation period (Incisitermes tabogae; out of 30 animals fumigated 1 hour, then 24-hour observation): 3
Number alive, 30 min. after 1st Fumigation (Incisitermes tabogae; [15]): 90
Number alive, 1 hr. after 1st Fumigation (Incisitermes tabogae; [15]): 30
Number alive, 3 hrs. after 1st Fumigation (Incisitermes tabogae; [15]): 0
Number dead, 30 min. after 1st Fumigation (Incisitermes tabogae; [15]): 0
Number dead, 1 hr. after 1st Fumigation (Incisitermes tabogae; [15]): 0
Number dead, 3 hrs. after 1st Fumigation (Incisitermes tabogae; [15]): 60
Effectiveness against termites in comparison test (termites; compared with SO2F2): as effective as SO2F2
Speed of effect on termites in wood (termites; compared with sulfuryl fluoride, penetrates wood more quickly): slightly faster effect
